Here are results for seven compounds from US6028092A, “Salts of N-(4-Oxo-2-(1H-tetrazoyl-5-yl)-4H-1-benzopyran-8-yl)-4-(4-phenylbutoxy)b enzamide” (SmithKline Beecham p.l.c, priority 1995, dated 2000).

Broadly, the half-life is the time needed for the level to fall by half in the phase considered. Read a high half-life as slow loss. Broadly, the AUC is the area under the concentration-time curve, a measure of exposure. In general, bioavailability refers to dose-corrected exposure relative to a reference, in per cent. A lower bioavailability goes with poor availability.

Series [1] in a line: Solubility of Compound 1 salts in water, ethanol and PEG 400. In kind it is physicochemical.
Series [2] in a line: In-situ solubilisation: solubility of Compound 1 in 50% acetate solution (0.1M) / 50% ethanol. In kind it is physicochemical. The protocol: Although the salts of Compound 1 are freely soluble in solvents such as ethanol further improvements have been observed when the salts are prepared in situ.
Solubility of Compound 1 in 50% Acetate Solution (0.1M) and 50%
(§1) In the presence of excess acetate the salts formed in situ are freely soluble even in an aqueous alcoholic medium with a water content of 50%. With lower water contents or in the absence of water the solubility can be improved further. For example when PEG 200 (30 mL) sodium acetate (2.5 g) and Compound 1 (7.4 g) were triturated in a mortar and pestle the sodium salt of Compound 1 formed in-situ was solubilised to a concentration greater than 200 g/l.

Series [3] in a line: Solubility of Compound 1 in 50% solvent systems/50% sodium phosphate (pH7) at different molarities. Format: physicochemical. The protocol: The scope of in-situ solubilisation in terms of solvent type and buffer concentration can be seen in Table 4. In these experiments the sodium salt of Compound 1 was prepared through the presence of varying concentrations of sodium phosphate buffer solution with 50% of the test solvent.
Solubility of Compound 1 in 50% solvent systems/50% sodium
phosphate (pH7) at different molarities
No value was obtained for those N/T samples because the solvents were immiscible with the buffer solution at those concentrations.

For series [4] the following is noted: rat, in vivo, po.
Series [5] is described as follows: Solubility of Compound 1 in 50% 0.1M salt solution (pH7)/50% absolute alcohol. Format: physicochemical. The source says:
Solubility of Compound 1 in 50% 0.1M salt solution (pH7)/50%

Series [6] is described as follows: In-situ solubilisation of sodium salt of Compound 1 in PEG 200 by trituration with sodium acetate. In kind it is physicochemical. To be noted: organic solvent or mixture; PEG 200 (30 mL), sodium acetate (2.5 g), Compound 1 (7.4 g); read-out: concentration solubilised in-situ. The protocol:
as §1

In brackets after ≈: the same amount, converted by molar mass. Read-outs that look alike come from different tables or passages of the source. A value given as a limit tells only on which side of the number the result lay.

Turning to `O=C(Nc1cccc2c(=O)cc(-c3nnn[nH]3)oc12)c1ccc(OCCCCc2ccccc2)cc1` [Compound 1, N-[4-Oxo-2-(1H-tetrazol-5-yl)-4H-1-benzopyran-8-yl]-4-(4-phenylbutoxy)benzamide], the solubility in series [1] (water, aqueous, free acid, read-out: aqueous solubility of Compound 1 free acid) is under 10 µg/mL; in series [2] (0.1m ammonium acetate/ethanol 50:50, organic solvent or mixture, ammonium acetate 0.1M 50% / ethanol 50%), 11.5 mg/mL (≈ 23.9 mM); in series [2] (0.1m calcium acetate/ethanol 50:50, organic solvent or mixture, calcium acetate 0.1M 50% / ethanol 50%) it was 0.4 mg/mL (≈ 0.831 mM); in series [2] (0.1m potassium acetate/ethanol 50:50, organic solvent or mixture, potassium acetate 0.1M 50% / ethanol 50%) it was 12.2 mg/mL (≈ 25.3 mM); in series [2] (0.1m sodium acetate/ethanol 50:50, organic solvent or mixture, sodium acetate 0.1M 50% / ethanol 50%) it was 11 mg/mL (≈ 22.8 mM); in series [3] (50% ethanol/0.1m sodium phosphate, pH 7, organic solvent or mixture, 50% ethanol / 50% sodium phosphate pH7, 0.1M), 16.2 mg/mL (≈ 33.6 mM). Besides, the solubility in series [3] (50% glycerol/0.1m sodium phosphate, pH 7, organic solvent or mixture, 50% glycerol / 50% sodium phosphate pH7, 0.1M) was 0.2 mg/mL (≈ 0.415 mM); in series [3] (50% glycerol/0.25m sodium phosphate, pH 7, organic solvent or mixture, 50% glycerol / 50% sodium phosphate pH7, 0.25M) it was 0.05 mg/mL (≈ 0.104 mM); in series [3] (50% glycerol/0.5m sodium phosphate, pH 7, organic solvent or mixture, 50% glycerol / 50% sodium phosphate pH7, 0.5M), 0.04 mg/mL (≈ 0.0831 mM); in series [3] (50% glycofurol/0.1m sodium phosphate, pH 7, 50% glycofurol / 50% sodium phosphate pH7, 0.1M), 19.5 mg/mL (≈ 40.5 mM); in series [3] (50% methanol/0.1m sodium phosphate, pH 7, organic solvent or mixture, 50% methanol / 50% sodium phosphate pH7, 0.1M) it was 2.2 mg/mL (≈ 4.57 mM); in series [3] (50% methanol/0.25m sodium phosphate, pH 7, organic solvent or mixture, 50% methanol / 50% sodium phosphate pH7, 0.25M), 1.1 mg/mL (≈ 2.28 mM). Further, the solubility in series [3] (50% methanol/0.5m sodium phosphate, pH 7, organic solvent or mixture, 50% methanol / 50% sodium phosphate pH7, 0.5M) is 0.9 mg/mL (≈ 1.87 mM); in series [3] (50% n-propanol/0.1m sodium phosphate, pH 7, organic solvent or mixture, 50% n-propanol / 50% sodium phosphate pH7, 0.1M) it was 18 mg/mL (≈ 37.4 mM); in series [3] (50% n-propanol/0.25m sodium phosphate, pH 7, organic solvent or mixture, 50% n-propanol / 50% sodium phosphate pH7, 0.25M), 43.1 mg/mL (≈ 89.5 mM); in series [3] (50% n-propanol/0.5m sodium phosphate, pH 7, organic solvent or mixture, 50% n-propanol / 50% sodium phosphate pH7, 0.5M), 56.3 mg/mL (≈ 117 mM); in series [3] (50% peg 400/0.1m sodium phosphate, pH 7, organic solvent or mixture, 50% PEG 400 / 50% sodium phosphate pH7, 0.1M) it was 20.5 mg/mL (≈ 42.6 mM); in series [3] (50% peg 400/0.25m sodium phosphate, pH 7, organic solvent or mixture, 50% PEG 400 / 50% sodium phosphate pH7, 0.25M), 23.7 mg/mL (≈ 49.2 mM). Moreover, the solubility in series [3] (50% peg 400/0.5m sodium phosphate, pH 7, organic solvent or mixture, 50% PEG 400 / 50% sodium phosphate pH7, 0.5M) amounted to 26.6 mg/mL (≈ 55.2 mM); in series [3] (50% propylene glycol/0.1m sodium phosphate, pH 7, organic solvent or mixture, 50% propylene glycol / 50% sodium phosphate pH7, 0.1M) it was 1.7 mg/mL (≈ 3.53 mM); in series [3] (50% propylene glycol/0.25m sodium phosphate, pH 7, organic solvent or mixture, 50% propylene glycol / 50% sodium phosphate pH7, 0.25M) it was 0.7 mg/mL (≈ 1.45 mM); in series [3] (50% propylene glycol/0.5m sodium phosphate, pH 7, organic solvent or mixture, 50% propylene glycol / 50% sodium phosphate pH7, 0.5M), 0.5 mg/mL (≈ 1.04 mM); in series [3] (50% thf/0.1m sodium phosphate, pH 7, organic solvent or mixture, 50% THF / 50% sodium phosphate pH7, 0.1M), 22.3 mg/mL (≈ 46.3 mM); in series [3] (50% thf/0.25m sodium phosphate, pH 7, organic solvent or mixture, 50% THF / 50% sodium phosphate pH7, 0.25M) it was 49.3 mg/mL (≈ 102 mM). Moreover, the solubility in series [3] (50% thf/0.5m sodium phosphate, pH 7, organic solvent or mixture, 50% THF / 50% sodium phosphate pH7, 0.5M) was determined as 101 mg/mL (≈ 210 mM). In series [4] (80 mg/kg), this compound showed a TMAX of 22.6 ± 14.9 min. For the same compound, the half-life in the series “in vivo” (rat, in vivo, iv, 3 mg/kg) turned out to be 23.2 ± 28.4 min. Moreover, the AUC in the series “in vivo” (rat, in vivo, iv, 3 mg/kg, AUC)-t or infinity) was 2850 µg·h/mL; in the series “in vivo” (rat, in vivo, po, 80 mg/kg, AUC)-t or infinity), 607 µg·h/mL. Besides, the bioavailability in the series “in vivo” (rat, in vivo, po, 80 mg/kg, BA) turned out to be 0.8 ± 0.16%. For the same compound, in “in vivo” (rat, in vivo, po, 80 mg/kg, CMAX), the CMAX is 207 ± 57.2 ng/mL.
On to `O=C(Nc1cccc2c(=O)cc(-c3nnn[nH]3)oc12)c1ccc(OCCCCc2ccccc2)cc1` [Meglumine], for which the “Solubility in PEG 400” value in series [1] (PEG 400) was found to be 9.20 g/L. Moreover, the Solubility in ethanol in series [1] is 3.06 g/L. In addition, the Solubility in water in series [1] (water) worked out at 0.34 g/L. Moreover, in series [4], the “absorption, in words” value is “evidence of enhanced absorption” and the “increase of absolute bioavailability relative to the parent acid” value was “approximately fourfold”. In addition, in series [4] (20 mg/kg), the “AUC)-t or infinity” value was 35290.4 ± 11719.1, the BA was determined as 3.09 ± 1.03% and the CMAX came out at 207.7 ± 112.2 ng/mL. Also, in series [4] (80 mg/kg), the “AUC)-t or infinity” value stood at 59012.7 ± 17096.3 µg·min/mL, the BA came out at 1.29 ± 0.37%, the CMAX was found to be 263.0 ± 139.5 ng/mL and the TMAX was found to be 97.5 ± 66.2 min. Besides, the TMAX in “in vivo” (rat, in vivo, po, 20 mg/kg, TMAX) is 53.1 min.
As to `O=C(Nc1cccc2c(=O)cc(-c3nnn[nH]3)oc12)c1ccc(OCCCCc2ccccc2)cc1` [Tris], the solubility in series [5] (50% salt solution/50% ethanol, pH 7, organic solvent or mixture, read-out: Solubility) stood at 1600 µg/mL.
As for `O=C(Nc1cccc2c(=O)cc(-c3nnn[nH]3)oc12)c1ccc(OCCCCc2ccccc2)cc1` [Ethylenediamine], the solubility in series [5] was determined as 1700 µg/mL.
Regarding `O=C(Nc1cccc2c(=O)cc(-c3nnn[nH]3)oc12)c1ccc(OCCCCc2ccccc2)cc1` [Calcium], in series [1] (PEG 400), the “Solubility in PEG 400” value was determined as 8.42 g/L. Also, the Solubility in ethanol in series [1] stood at 0.36 g/L.
Take `O=C(Nc1cccc2c(=O)cc(-c3nnn[nH]3)oc12)c1ccc(OCCCCc2ccccc2)cc1` [Sodium]: the Solubility in ethanol in series [1] was over 10 g/L. For the same compound, the solubility in series [1] (peg 400, organic solvent or mixture, PEG 400, read-out: Solubility in PEG 400) is over 10000 µg/mL; in series [6], over 200 mg/mL. For the same compound, the Solubility in water in series [1] (water) was determined as 0.04 g/L.
For the compound `O=C(Nc1cccc2c(=O)cc(-c3nnn[nH]3)oc12)c1ccc(OCCCCc2ccccc2)cc1` [Ammonium], the “Solubility in PEG 400” value in series [1] (PEG 400) was over 10 g/L. The Solubility in ethanol in series [1] came to 9.33 g/L. Moreover, in series [1] (water), the Solubility in water came to 0.28 g/L. In addition, in series [4], the “absorption, in words” value was “reasonably well absorbed” and the “increase of absolute bioavailability relative to the parent acid” value is reported as “approximately tenfold”. In addition, in series [4] (20 mg/kg), the “AUC)-t or infinity” value is 81490.5 ± 23670.3 µg·min/mL, the BA was determined as 7.15 ± 2.08%, the CMAX is 548.5 ± 165.7 ng/mL and the TMAX is listed as 53.1 ± 29.8 min. In addition, in series [4] (80 mg/kg), the “AUC)-t or infinity” value is on record as 66722.9 ± 16472.6, the BA came out at 1.46 ± 0.36%, the CMAX is reported as 264.5 ± 64.06 ng/mL and the TMAX is 150.5 ± 34.1 min. This compound also came in with a bioavailability in the series “in vivo” (rat, in vivo, po, 20 mg/kg, absolute bioavailability) of about 7%.
